Like-named read-outs stand apart in the source and are kept apart here.
What was measured:
Format in all cases: cell-based
IL-6 = test: LPS-stimulated hPBMC cytokine production: IL-6; conditions: Homo sapiens; LPS 1 ng/ml, 18 hours
Experimental: (§1) 50 ml human buffy coat was aliquoted 25 ml each into two 50 ml conical tubes and 25 ml sterile HBSS was added to each conical tube. The tubes were gently mixed by inverting. Fifteen ml of room temperature Ficoll-Paque Plus (GE Healthcare (location); cat #17-1440-02) was aliquoted into four 50 ml conical tubes. Then 25 ml of the Buffy coat/HBSS mixture was layered gently and slowly on top of the Ficoll. The samples were centrifuged at 450 rpm for 35 minutes. The top layered containing plasma was pipetted off and discarded. The interface containing mononuclear cells was transferred into two 50 ml conical tubes. Both conical tubes were filled to total volume of 50 ml with HBSS and centrifuged at 1200 rpm for 10 minutes. The cells were washed again in HBSS and spun at 1000 rpm for 10 minutes. Cell pellet was resuspended with 20 ml RPMI complete medium (RPMI/5% human sera/1× pen/strep/glut) and counted.
(§2) One hundred μl (2×10^6/ml) of hPBMCs were added to each well of a 96 well flat-bottom plate (final cell count=2×10^5/well) and incubated at 37° C. for 1 hour. […] compound was added to each test well and twenty μl medium containing 2.5% DMSO was added to each control well ([DMSO]final=0.25%) and plate was incubated for 1 hour at 37° C. Cells were then stimulated with […] 2.5 ng/ml LPS ([LPS]final=1 ng/ml) and incubated for 18 hours at 37° C.
(§3) 50 μl supernatant from each well was transferred into 3 new round-bottomed 96 well plates and stored at −20° C. for Luminex analysis. Duplicate wells were performed for each sample.
(§4) Supernatant samples were analyzed for cytokines in multiplex format according to the manufacturer's instructions (Millipore, Billerica, Ma 01821) using a Luminex IS100 instrument. IL-12 and GM-CSF analyses were done in a two-plex format using neat supernatants while all other cytokines were done in a multiplex format using supernatants diluted 1:20. Data analysis was performed using Upstate Beadview software. […] The IC50 were performed using GraphPad Prism v5.00. […]

IL-1β = test: LPS-stimulated hPBMC cytokine production: IL-1β; conditions: Homo sapiens; LPS 1 ng/ml, 18 hours
Experimental: as §1, §2, §3, §4

GM-CSF = test: LPS-stimulated hPBMC cytokine production: GM-CSF; conditions: Homo sapiens
Experimental: as §1, §2, §3, §4

MIP-1α = test: LPS-stimulated hPBMC cytokine production: MIP-1α; conditions: Homo sapiens
Experimental: as §1, §2, §3, §4

[1] = tested on: Human umbilical vascular endothelial cells; test: Human umbilical vascular endothelial cells proliferation assay; conditions: for IC50: Homo sapiens, Endothelial cell
Experimental: Human Umbilical Vascular Endothelial Cells Proliferation Assay: Human umbilical vascular endothelial cells were thawed and grown in EGM2 medium until passage 3 to 6 for all proliferation assays. Human umbilical vascular endothelial cells were trypsinized, washed with 20% FBS/M199 medium and plated with the same medium at 10^4 cells/100 μL per well to 96-well cell culture plates. The plates were incubated overnight at 37° C. to allow cells to adhere. The cells were then starved in 1% FBS/M199 medium for 18 hours after washing with the same medium 3 times. For optimization of the concentration of the growth factors in the HUVEC proliferation assay, 100 μL/well of the 2× serial diluted growth factors, starting at 100 ng/mL, were added to HUVECs in duplicate for 72 hours at 37° C. in a humidified cell culture incubator with 5% CO2. For analysis of test compounds, a serial dilution of the test compounds in 0.4% DMSO/1% FBS/M199 medium in duplicate was made from the 10 mM stock. Fifty microliters per well of the serially diluted test compounds (10, 1.0, 0.1, 0.01, 0.001, 0.0001, 0.00001 μM) were added to the cells for 1 to 2 hours at 37° C. The final DMSO concentration in the cells is 0.1%. Then 50 μL of 4× final concentration of relative growth factors was added to each well in duplicate for 72 hours at 37° C. in a humidified cell culture incubator with 5% CO2. Thymidine incorporation was measured by adding one microcurie of 3H-thymidine (Amersham) in 20 μL medium to each well and incubated at 37° C. in a humidified cell culture incubator with 5% CO2 for 5 to 6 hours. The cells were then trypsinized and harvested onto UniFilter GF/C filter plates (Perkin Elmer) by using the cell harvester (Tomtec). After the plates were air dried, 20 µL/well of Microscint 20 (Packard) was added then the plates were analyzed in TopCount NXT (Packard). Each well was counted for one minute. The experiments were performed in duplicate in each of 3 donors.
(§5) The percentage inhibition of cell proliferation, tube formation, migration, and invasion was calculated by subtracting the result for unstimulated DMSO control from test sample results, averaging all replicates, and normalizing to the growth factor-stimulated DMSO control (0% inhibition). The IC50 values were calculated by using GraphPad Prism 5.0.

[2] = tested on: Human umbilical vascular endothelial cells; test: Human umbilical vascular endothelial cell invasion assay; conditions: for IC50: Homo sapiens; for VEGF-, bFGF-, and HGF-induced HUVEC invasion: dose-dependent
Experimental: Human Umbilical Vascular Endothelial Cell Invasion Assay: In the HUVEC invasion assay, the concentration of human fibronectin is optimized to provide a suitable protein structure for adherent cells to attach to the membrane and allow free migration in response to an angiogenic stimulus (e.g. VEGF, bFGF, or HGF) in the lower chamber of the insertplate. HUVECs were starved in 0.1% BSA EBM2 medium for 6 hours after washing with the same medium 3 times. The cells were then trypsinized and centrifuged to remove the remaining trypsin. Then ˜0.5 to 1×10^6 cells in 125 μL/well and 125 μL of […] serially diluted compounds (10, 1, 0.1, 0.01, 0.001 μM) were added to the upper chamber of the BD Falcon 24-well and 96-well insert plates in duplicate and incubated for […]. (The plates contain a fluorescence blocking, microporous [3.0 μm pore size] PET membrane that has been evenly coated with human fibronectin.) Seven hundred fifty microliters of a 1.33×stock solution of VEGF (final concentration of 25 ng/mL), bFGF (final concentration of 10 ng/mL), or HGF (final concentration of 25 ng/mL) were then added to the lower chamber. The cells were incubated for 22±1 hours at 37° C. The migrated cells were stained with calcein AM at […] in HBSS containing 2% FBS, using 500 μL/well in 24-well plates and 200 μL/well in 96-well plates. The plates were incubated at 37° C. for 90 minutes and read in a fluorescence plate reader.
as §5

[3] = read-out: bFGF (10 ng/mL) IC50 Values (μM), bFGF-induced proliferation
[4] = HGF-induced proliferation, read-out: HGF (25 ng/mL) IC50 Values
[5] = VEGF-induced proliferation, read-out: VEGF (25 ng/mL) IC50 Values
[6] = Endothelial cell, HGF 25 ng/mL, read-out: HGF-induced invasion IC50 Values
[7] = Endothelial cell, VEGF 25 ng/mL, read-out: VEGF-induced invasion IC50 Values
[8] = Endothelial cell, bFGF 10 ng/mL, read-out: bFGF-induced invasion IC50 Values
[9] = HUVEC, growth factor not given, read-out: IC50 (HUVEC invasion)
[10] = LPS 1 ng/ml, 18 hours, read-out: GM-CSF IC50
[11] = LPS 1 ng/ml, 18 hours, read-out: MIP-1α IC50

Structure (SMILES) | IC50 (IL-6) | IC50 (IL-1β) | IC50 (GM-CSF; 18 h, read-out: GM-CSF IC50 (μM)) | IC50 (MIP-1α; 18 h, read-out: MIP-1α IC50 (μM)) | VEGF-, bFGF-, or HGF-induced HUVEC proliferation [1] | IC50 [1, 3] | IC50 [1, 4] | IC50 [1, 5] | concentrations with significant enhancement of proliferation ([1]; bFGF-treated HUVECs) | IC50 [2, 6] | IC50 [2, 7] | IC50 [2, 8] | IC50 [2, 9] | VEGF-, bFGF-, and HGF-induced HUVEC invasion [2] | IC50 (GM-CSF; [10]) | IC50 (MIP-1α; [11]) | concentrations with significant enhancement of proliferation ([1]; VEGF-treated HUVECs)
O=C1CCC(N2Cc3c(OCc4ccc(CN5CCOCC5)cc4)cccc3C2=O)C(=O)N1 (racemic) [Racemate, 3-[4-(4-morphlin-4-ylmethylbenzyloxy)-1-oxo-1,3-dihydro-isoindo-2-yl]piperidine-2,6-dione] | 0.01 µM | 0.00085 µM | 0.0092 µM | 0.19 µM | did not inhibit | 99 µM | 24 µM | > 100 µM | 0.01 to 1 µM | 0.59 µM | 0.00014 µM | 0.00042 µM | 0.0004 µM | significantly inhibited |  |  | 
O=C1CC[C@@H](N2Cc3c(OCc4ccc(CN5CCOCC5)cc4)cccc3C2=O)C(=O)N1 [R-enantiomer, (R)-3-[4-(4-morphlin-4-ylmethylbenzyloxy)-1-oxo-1,3-dihydro-isoindo-2-yl]piperidine-2,6-dione] | 0.083 µM | 0.0062 µM |  |  | did not inhibit | 76 µM | 38 µM | > 100 µM |  | 0.45 µM | < 0.0001 µM | 0.013 µM | 0.013 µM | significantly inhibited | 0.039 µM | 0.45 µM | 
O=C1CC[C@H](N2Cc3c(OCc4ccc(CN5CCOCC5)cc4)cccc3C2=O)C(=O)N1 [Test compound, (S)-3-[4-(4-morphlin-4-ylmethylbenzyloxy)-1-oxo-1,3-dihydro-isoindo-2-yl]piperidine-2,6-dione] | 0.0038 µM | 0.00046 µM |  |  | did not inhibit | 52 µM | 51 µM | > 100 µM |  | 0.019 µM | < 0.0001 µM | < 0.0001 µM | < 0.0001 µM | significantly inhibited | 0.0022 µM | 0.028 µM | 1 to 10 µM

Reference: patent US11524950B2, “Treatment of immune-related and inflammatory diseases” (Celgene Corporation, priority 2012, dated 2022)
